How the values were obtained:
[1] = LogP determination by HPLC (EEC directive 79/831 Annex V.A8, reversed-phase C18); format: physicochemical; details: reversed-phase C18 HPLC column, mobile phase range not labelled
Method: The LogP values given in Table 1 were determined in accordance with EEC directive 79/831 Annex V.A8 by HPLC (High Performance Liquid Chromatography) using a reversed-phase column (C 18). Temperature: 43° C.
(a) Mobile phases for the determination in the acidic range: 0.1% aqueous phosphoric acid, acetonitrile; linear gradient from 10% acetonitrile to 90% acetonitrile—the corresponding data in Table 1 are labelled^a).
(b) Mobile phases for the determination in the neutral range, 0.01 molar aqueous phosphate buffer solution, acetonitrile; linear gradient from 10% acetonitrile to 90% acetonitrile—the corresponding data in Table 1 are labelled b
Calibration was carried out using unbranched alkan-2-ones (with from 3 to 16 carbon atoms) whose logP values are known (determination of the logP values by the retention times using linear interpolation between two successive alkanones).

weeds [2] = assay: Pre-emergence test (Example A), weeds; format: in vivo; details: soil sprayed 24 hours after sowing, rated after three weeks
From the text: (§1) Solvent: 5 parts by weight of acetone
(§2) Emulsifier: 1 part by weight of alkylaryl polyglycol ether
Seeds of the test plants are sown in normal soil.
(§3) After three weeks, the degree of damage to the plants is rated in % damage in comparison to the development of the untreated control.

weeds [3] = assay: Post-emergence test (Example B), weeds; format: in vivo; details: test plants of 5-15 cm sprayed, rated after three weeks
From the text: as §1, §2, §3

Row | SMILES | melting point [°C] | chromatographic logP [1] | activity against weeds (degree of damage) (weeds [2]) | activity against weeds (degree of damage) (weeds [3])
1 | COc1cc(N2C(=O)c3ccccc3C2=O)c(F)cc1C#N [N-(2-fluoro-4-cyano-5-methoxy-phenyl)-phthalimide] | 245 | 2.51 |  | 
2 | N#Cc1cc(F)c(N2C(=O)c3ccccc3C2=O)cc1O [N-(2-fluoro-4-cyano-5-hydroxy-phenyl)-phthalimide] | 247 | 2.04 |  | 
3 | CC1C=Cc2c(c(C#N)cc(F)c2-n2c(=O)cc(C(F)(F)F)n(N)c2=O)O1 (stereo not shown) [Example 1] |  |  | very strong activity | 
4 | C#CC(C)Oc1cc(N2C(=O)c3ccccc3C2=O)c(F)cc1C#N (stereo not shown) [Example (II-2), N-[2-fluoro-4-cyano-5-(but-1-in-3-yl)-oxyphenyl]-phthalimide] | 170 | 2.92 |  | 
5 | CC1C=Cc2c(c(C#N)cc(F)c2-n2nc(C(F)(F)F)n(C)c2=S)O1 (stereo not shown) [Example 2] | 144 | 3.37 |  | very strong activity

Reference: US6573219B1, “Substituted heterocyclyl-2H-chromenes” (Bayer Aktiengesellschaft, priority 1999, dated 2003)
